# Assay results reported in patent US10159268B2, “Reduced sodium food products” (GENERAL MILLS, INC., priority 2013, dated 2018).
# How the values were obtained:
# [1] = Broth DAP test: trained panel rates saltiness of compounds in simple broth; format: in vivo; set-up: key: DAP score; >7.6 indicates saltiness or salt enhancement in broth; settings: single compound in simple broth; best DAP score of tested concentrations 0.1, 1 and 10 ppm; DAP score greater than 7.6 indicates saltiness or salt enhancement
# Protocol: (§1) Briefly, each individual tested compound was placed in water and in sodium solution to test saltiness and saltiness enhancement potential. Tests in water were executed in a compound concentration of 10 ppm. Tests in sodium solution were executed in compound concentrations of 0.1, 1 and 10 ppm. Two control sodium solutions with known organoleptic salt intensities were provided as references for each test. The test for individual compounds was also conducted using simple broth instead of sodium solution. A number of compound combinations identified from the Na-solution DAP test were used for the broth DAP test. Tests were executed with a trained panel of 9-12 assessors. For Na-solution DAP tests, a DAP score of greater than 3.1 indicates saltiness or salt enhancement. The DAP score can be correlated with a sodium reduction potential by subtracting 3.1 from the DAP score. […] For broth DAP tests, a DAP score of greater than 7.6 indicates saltiness or salt enhancement. The DAP score can be correlated with a sodium reduction potential by subtracting 7.6 from the DAP score.
# [2] = Na-solution DAP test: trained panel rates saltiness of compounds in sodium solution; format: in vivo; set-up: key: DAP score; >3.1 indicates saltiness or salt enhancement; settings: single compound in sodium solution; best DAP score of tested concentrations 0.1, 1 and 10 ppm; DAP score greater than 3.1 indicates saltiness or salt enhancement
# Protocol: as §1
Molecule,DAP in Broth [1],DAP in Na-Sol. [2]
"COc1cc2c(c(OC)c1OC)-c1c(cc(OC)c(OC)c1OC)C[C@H](C)[C@H](C)C2 [Compound 45, Schisandrin A, Deoxyschizandrin]",8.2,3.5
"COc1cc2c(c(OC)c1OC)-c1c(cc3c(c1OC)OCO3)CC(C)C(C)C2 (stereo not drawn) [Compound 46, Schizandrin B]",7.8,3.6
"COc1cc(C[C@@H](CO)[C@H](CO)Cc2ccc(O[C@@H]3O[C@H](CO)[C@@H](O)[C@H](O)[C@H]3O)c(OC)c2)ccc1O [Compound 48, Secoisolariciresinol; Secoisolariciresin-4-yl b-D-glucopyranoside]",7.8,3.7
"COc1cc(CC(C)C(C)Cc2ccc(O)c(OC)c2)ccc1O (stereo not drawn) [Compound 49, Dihydrogualaretic acid]",8.2,3.6
CCCC(=O)c1c(OC)cc(OC)c(CCO)c1O [Compound 54],8.1,3.4
"CC1(C)CC2C1CCC1(C)CC2(O)CCC1O (stereo not drawn) [Compound 56, Senecrassidiol]",7.7,4
"C/C=C(\C)C(=O)O[C@H]1C[C@@H](OC(C)=O)[C@@]2(C)CO[C@@H]3C2[C@@]1(C)[C@@H](CC(=O)OC)[C@]1(C)C2=C(C)[C@H](c4ccoc4)C[C@H]2O[C@H]31 (stereo partly drawn) [Compound 58, Salannin]",8.0,3.3
"COc1cc(C2c3cc4c(cc3CC3COC(=O)C32)OCO4)cc(OC)c1OC (stereo not drawn) [Compound 59, Isoanthricin]",7.9,3.3
"CC(C)C(=O)c1c2c(c3oc(=O)cc(-c4ccccc4)c3c1O)CC(C(C)(C)O)O2 (stereo not drawn) [Compound 60, Mammea A/AD cyclo F]",8.1,3.8
"COc1c2ccoc2cc2oc(=O)ccc12 [Compound 62, Bergapten]",8.0,3.9
"CC(C)(O)[C@@H](O)COc1c2ccoc2cc2oc(=O)ccc12 [Compound 63, Prangol]",8.0,3.5
"CC(C)=CCOc1c2occc2cc2ccc(=O)oc12 [Compound 64, Imperatorin]",7.8,3.7
"COc1c2ccoc2c(OCC=C(C)C)c2oc(=O)ccc12 [Compound 65, Phellopterin]",7.9,3.3
"CC(=O)OC1CCC2(C)C(COc3ccc4ccc(=O)oc4c3)C(C)(O)CCC2C1(C)C (stereo not drawn) [Compound 66, terpenoid coumarins]",7.8,3.2
"C[C@]12CC[C@H](O)C[C@H]1CC[C@@H]1[C@@H]2CC[C@]2(C)[C@@H](C3=CC(=O)OC3)CC[C@]12O [Compound 73, Digitoxigenin]",8.0,3.5
"CC(=O)O[C@@H]1C[C@H]2C(C)(C)C(=O)C=C[C@]2(C)[C@H]2CC[C@]3(C)C(=CC(=O)[C@H]3c3ccoc3)[C@@]21C [Compound 74, Azadiradione]",7.7,3.2
"COC1CC(OC2CCC3(C=O)C(CCC4C3CCC3(C)C(C5=CC(=O)OC5)CCC43O)C2)OC(C)C1OC1OC(CO)C(O)C(O)C1O (stereo not drawn) [Compound 76, Apobioside]",8.0,3.2
"COC1CC(OC2CCC3(C=O)C(CCC4C3CCC3(C)C(C5=CC(=O)OC5)CCC43O)C2)OC(C)C1O (stereo not drawn) [Compound 77, Apocannoside]",8.1,3.4
"C=CCCCCCCC(C(=O)O)C(O)CC(=O)O (stereo not drawn) [Compound 81, a 2-octenyl-3-hydroxy-1,5-pentanedioic acid]",7.8,3.2
"C=CCCCCCCCCCCC[C@H](O)C[C@H](O)CO [Compound 82, 16-Heptadecene-1,2,4-triol; Avocadene]",8.3,3.8
"C=CCCCCCCCCCCCC(CC(O)COC(C)=O)OC(C)=O (stereo not drawn) [Compound 83, 16-Heptadecene-1,2,4-triol, 1,4-diacetate]",8.1,4.2
"CCCCCCCCCCNC(C)=O [Compound 84, N-Decyl acetamide]",8.1,3.8
"CCC=CC=CC(O)CC=CCCCCCCCC(=O)O (stereo not drawn) [Compound 86, 12-hydroxy-9,13,15-Octadecatrienoic acid]",8.0,3.9
"CCCCC/C=C/C=C/C(O)CCCCCCCC(=O)O (stereo not drawn) [Compound 88, Dimorphecolic acid]",8.0,3.2
"CC/C=C\C/C=C\C/C=C\CCCCCCCC(=O)O [Compound 89, Linolenic acid]",7.6,3.7
Brevifolin [Compound 53],8.5,3.7
"a pentadecatrienyl-1,3-benzenediol [Compound 10]",7.9,3.9
